According to PubChem BioAssay (NCI):
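Results reflect a 48-hour exposure of cells in 96-well plates to compound at five concentrations. TGI marks complete inhibition of growth.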

How the values were obtained:
Assay in all cases: NCI-60 cell line screen, 48 h
786-0 renal = test system: 786-0 renal
A498 renal = test system: A498 renal
A549 NSCLC = test system: A549 NSCLC
ACHN renal = test system: ACHN renal
BT-549 breast = test system: BT-549 breast
CAKI-1 renal = test system: CAKI-1 renal
CCRF-CEM leukemia = test system: CCRF-CEM leukemia
COLO 205 colon = test system: COLO 205 colon
DU-145 prostate = test system: DU-145 prostate
EKVX NSCLC = test system: EKVX NSCLC
HCC-2998 colon = test system: HCC-2998 colon
HCT-116 colon = test system: HCT-116 colon
HCT-15 colon = test system: HCT-15 colon
HOP-62 NSCLC = test system: HOP-62 NSCLC
HOP-92 NSCLC = test system: HOP-92 NSCLC
HS 578T breast = test system: HS 578T breast
HT29 colon = test system: HT29 colon
IGROV1 ovarian = test system: IGROV1 ovarian
K-562 leukemia = test system: K-562 leukemia
KM12 colon = test system: KM12 colon
LOX IMVI melanoma = test system: LOX IMVI melanoma
M14 melanoma = test system: M14 melanoma
MALME-3M melanoma = test system: MALME-3M melanoma
MCF7 breast = test system: MCF7 breast
MDA-MB-231 breast = test system: MDA-MB-231 breast
MDA-MB-435 = test system: MDA-MB-435
MDA-N = test system: MDA-N
MOLT-4 leukemia = test system: MOLT-4 leukemia
NCI-H226 lung = test system: NCI-H226 lung
NCI-H23 lung = test system: NCI-H23 lung
NCI-H460 lung = test system: NCI-H460 lung
NCI-H522 lung = test system: NCI-H522 lung
NCI/ADR-RES ovarian = test system: NCI/ADR-RES ovarian
OVCAR-3 ovarian = test system: OVCAR-3 ovarian
OVCAR-4 ovarian = test system: OVCAR-4 ovarian
OVCAR-5 ovarian = test system: OVCAR-5 ovarian
OVCAR-8 ovarian = test system: OVCAR-8 ovarian
PC-3 prostate = test system: PC-3 prostate
RPMI-8226 leukemia = test system: RPMI-8226 leukemia
RXF 393 renal = test system: RXF 393 renal
SF-268 CNS = test system: SF-268 CNS
SF-295 CNS = test system: SF-295 CNS
SF-539 CNS = test system: SF-539 CNS
SK-MEL-2 melanoma = test system: SK-MEL-2 melanoma
SK-MEL-28 melanoma = test system: SK-MEL-28 melanoma
SK-MEL-5 melanoma = test system: SK-MEL-5 melanoma
SK-OV-3 ovarian = test system: SK-OV-3 ovarian
SN12C renal = test system: SN12C renal
SNB-19 CNS = test system: SNB-19 CNS
SR leukemia = test system: SR leukemia
SW-620 colon = test system: SW-620 colon
T-47D breast = test system: T-47D breast
TK-10 renal = test system: TK-10 renal
U251 CNS = test system: U251 CNS
UACC-257 melanoma = test system: UACC-257 melanoma
UACC-62 melanoma = test system: UACC-62 melanoma
UO-31 renal = test system: UO-31 renal
SNB-75 CNS = test system: SNB-75 CNS

Measured: TGI

CNc1ncnc2c1cnn2Cc1cn(CCCCO)nn1
> 100 µM: 786-0 renal | A498 renal | A549 NSCLC | ACHN renal | BT-549 breast | CAKI-1 renal | CCRF-CEM leukemia | COLO 205 colon | DU-145 prostate | EKVX NSCLC | HCC-2998 colon | HCT-116 colon | HCT-15 colon | HOP-62 NSCLC | HOP-92 NSCLC | HS 578T breast | HT29 colon | IGROV1 ovarian | K-562 leukemia | KM12 colon | LOX IMVI melanoma | M14 melanoma | MALME-3M melanoma | MCF7 breast | MDA-MB-231 breast | MDA-MB-435 | MDA-N | MOLT-4 leukemia | NCI-H226 lung | NCI-H23 lung | NCI-H460 lung | NCI-H522 lung | NCI/ADR-RES ovarian | OVCAR-3 ovarian | OVCAR-4 ovarian | OVCAR-5 ovarian | OVCAR-8 ovarian | PC-3 prostate | RPMI-8226 leukemia | RXF 393 renal | SF-268 CNS | SF-295 CNS | SF-539 CNS | SK-MEL-2 melanoma | SK-MEL-28 melanoma | SK-MEL-5 melanoma | SK-OV-3 ovarian | SN12C renal | SNB-19 CNS | SR leukemia | SW-620 colon | T-47D breast | TK-10 renal | U251 CNS | UACC-257 melanoma | UACC-62 melanoma | UO-31 renal

COc1ccccc1N1C(=O)CC(=O)N(C(=O)CCCCCCCCC(=O)N2C(=O)CC(=O)N(c3ccccc3OC)C2=S)C1=S
> 100 µM: 786-0 renal | A498 renal | A549 NSCLC | ACHN renal | BT-549 breast | CAKI-1 renal | CCRF-CEM leukemia | COLO 205 colon | DU-145 prostate | EKVX NSCLC | HCC-2998 colon | HCT-116 colon | HCT-15 colon | HOP-62 NSCLC | HOP-92 NSCLC | HS 578T breast | HT29 colon | K-562 leukemia | KM12 colon | LOX IMVI melanoma | M14 melanoma | MALME-3M melanoma | MCF7 breast | MDA-MB-231 breast | MDA-MB-435 | MDA-N | MOLT-4 leukemia | NCI-H226 lung | NCI-H23 lung | NCI-H460 lung | NCI-H522 lung | NCI/ADR-RES ovarian | OVCAR-3 ovarian | OVCAR-4 ovarian | OVCAR-5 ovarian | OVCAR-8 ovarian | PC-3 prostate | RPMI-8226 leukemia | RXF 393 renal | SF-268 CNS | SF-295 CNS | SF-539 CNS | SK-MEL-2 melanoma | SK-MEL-28 melanoma | SK-MEL-5 melanoma | SK-OV-3 ovarian | SN12C renal | SNB-19 CNS | SNB-75 CNS | SR leukemia | SW-620 colon | T-47D breast | TK-10 renal | U251 CNS | UACC-257 melanoma | UACC-62 melanoma | UO-31 renal
